Measurements published in patent US9403846B2, “Carbocyclic- and heterocyclic-substituted hexahydropyrano[3,4-d][1,3]thiazin-2-amine compounds” (Pfizer Inc., priority 2012, dated 2016).
Where a name gives a salt, the structure may show the parent alone.

Tests used:
BACE1 enzyme = BACE1 enzyme (Homo sapiens (Human), UniProt P56817); test: BACE1 Cell-Free Assay (fluorescence polarization);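 on all read-outs here: Affinity-purified soluble BACE1 from transfected CHO-K1 cells cleaving a biotinylated, Oregon Green-labelled synthetic APP peptide, 3 h at 37 °C, cleavage followed by fluorescence polarization change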; assay type: biochemical; settings: for IC50: geometric mean of 2-3 determinations (Ex. 2: ≧6 determinations); for biological activity (in words, see Table 3): statement used to assign absolute stereochemistry, refers to Table 3
[1] = test system: sAPPβ levels in H4 human neuroglioma cells over-expressing the wild-type human APP695; test: Whole Cell Assay (In Vitro sAPPb Assay); assay type: cell-based; settings: 18 hours, geometric mean of 2-3 determinations (Ex. 2: ≧6 determinations)
BACE2 enzyme = BACE2 enzyme (Homo sapiens (Human), UniProt Q9Y5Z0); test: BACE2 Assay (cell-free, fluorescence polarization); assay type: biochemical; settings: single determination
Experimental: This assay measures the inhibition of the BACE2 enzyme as it cleaves a non-native peptide. A synthetic substrate that can be cleaved by BACE2 having N-terminal biotin and made fluorescent by the covalent attachment of Oregon Green at the Cys residue is used to assay BACE2 activity in the presence or absence of the inhibitory compounds. The substrate is Biotin-[…]-C(Oregon green)-KK-OH. The BACE2 enzyme is available from Enzo Life Sciences (Cat # BML-SE550). Compounds are incubated in a ½ log dose response curve from a top concentration of 100 μM with BACE2 enzyme and the biotinylated fluorescent peptide in 384-well black plates (Thermo Scientific #4318). BACE2 is at a final concentration of 2.5 nM with a final concentration of peptide substrate of 150 nM in a reaction volume of 30 μL assay buffer (100 mM sodium acetate, pH 4.5 (brought to pH with acetic acid), and 0.001% Tween-20). Plates are covered and incubated for 3 hours at 37° C. The reaction is stopped with the addition of 30 μL of 1.5 μM Streptavidin (Pierce, #21125). After a 10 minute incubation at room temperature, plates are read on a PerkinElmer EnVision for fluorescence polarization (Ex485 nm/Em530 nm). The activity of the beta-secretase enzyme is detected by changes in the fluorescence polarization that occur when the substrate is cleaved by the enzyme.

Chain of BACE2 enzyme (Q9Y5Z0 63-518): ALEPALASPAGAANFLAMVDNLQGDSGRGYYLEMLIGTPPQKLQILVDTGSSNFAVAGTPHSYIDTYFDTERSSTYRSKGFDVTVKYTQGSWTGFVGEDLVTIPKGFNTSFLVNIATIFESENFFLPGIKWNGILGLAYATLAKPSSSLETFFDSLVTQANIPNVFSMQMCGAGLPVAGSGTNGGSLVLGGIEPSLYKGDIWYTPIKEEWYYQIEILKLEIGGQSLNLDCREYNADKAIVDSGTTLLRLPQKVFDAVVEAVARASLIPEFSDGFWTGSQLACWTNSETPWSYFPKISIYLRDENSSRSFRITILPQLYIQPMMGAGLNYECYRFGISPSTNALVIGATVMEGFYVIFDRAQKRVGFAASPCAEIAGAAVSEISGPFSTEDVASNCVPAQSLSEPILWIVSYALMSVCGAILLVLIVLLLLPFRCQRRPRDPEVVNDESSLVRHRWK
Chain of BACE1 enzyme (P56817 46-457): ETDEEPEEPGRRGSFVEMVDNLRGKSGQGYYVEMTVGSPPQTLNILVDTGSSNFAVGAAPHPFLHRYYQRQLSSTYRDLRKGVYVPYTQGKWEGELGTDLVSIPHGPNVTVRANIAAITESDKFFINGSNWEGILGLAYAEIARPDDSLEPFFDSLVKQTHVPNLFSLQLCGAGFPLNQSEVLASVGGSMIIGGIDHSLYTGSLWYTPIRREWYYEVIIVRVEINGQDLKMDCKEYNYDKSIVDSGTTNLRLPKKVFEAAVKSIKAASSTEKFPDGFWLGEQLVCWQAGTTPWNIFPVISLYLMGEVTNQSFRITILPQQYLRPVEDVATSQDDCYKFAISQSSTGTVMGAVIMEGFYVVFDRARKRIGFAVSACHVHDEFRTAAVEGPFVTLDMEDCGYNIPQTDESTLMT

IC50 (BACE1 enzyme) | IC50 ([1]; Homo sapiens) | IC50 (BACE2 enzyme) | biological activity (in words, see Table 3) (BACE1 enzyme) | IC50 [1] | Compound
1410 nM | 116 nM |  |  |  | COC[C@H]1SC(N)=N[C@@]2(c3ccc(F)cc3F)CO[C@@H](C3CC3)C[C@@H]12 (racemic) [Example 5, rel-(4S,4aR,6R,8aS)-6-Cyclopropyl-8a-(2,4-difluorophenyl)-4-(methoxymethyl)-4,4a,5,6,8,8a-hexahydropyrano[3,4-d][1,3]thiazin-2-amine, hydrochloride salt]
447 nM | 73.8 nM | 1290 nM |  |  | NC1=N[C@@]2(c3ccc(F)cc3F)CO[C@@H](C3CCCO3)C[C@H]2CS1 (stereo partly drawn) [Example 1, (4aR,6R,8aS)-8a-(2,4-Difluorophenyl)-6-(tetrahydrofuran-2-yl)-4,4a,5,6,8,8a-hexahydropyrano[3,4-d][1,3]thiazin-2-amine, trifluoroacetate salt]
337 nM | 38.9 nM | 2490 nM |  |  | C[C@H]1SC(N)=N[C@@]2(c3ccc(F)cc3F)CO[C@@H](C3CC3)C[C@@H]12 [Example 3, (4R,4aR,6R,8aS)-6-Cyclopropyl-8a-(2,4-difluorophenyl)-4-methyl-4,4a,5,6,8,8a-hexahydropyrano[3,4-d][1,3]thiazin-2-amine, trifluoroacetate salt]
1310 nM | 137 nM |  |  |  | NC1=N[C@@]2(c3ccc(F)cc3F)CO[C@@H](C3CCO3)C[C@H]2CS1 (stereo partly drawn) [Example 4, (4aR,6R,8aS)-8a-(2,4-Difluorophenyl)-6-(oxetan-2-yl)-4,4a,5,6,8,8a-hexahydropyrano[3,4-d][1,3]thiazin-2-amine]
346 nM | 39.1 nM |  |  |  | NC1=N[C@@]2(c3ccc(F)cc3F)CO[C@@H](C3CC3)C[C@H]2[C@@H](CF)S1 [Example 6, (4S,4aR,6R,8aS)-6-Cyclopropyl-8a-(2,4-difluorophenyl)-4-(fluoromethyl)-4,4a,5,6,8,8a-hexahydropyrano[3,4-d][1,3]thiazin-2-amine, hydrochloride salt]
484 nM | 142 nM |  |  |  | CC1([C@H]2C[C@H]3CSC(N)=N[C@@]3(c3ccc(F)cc3F)CO2)CC1 [Example 7, (4aR,6R,8aS)-8a-(2,4-Difluorophenyl)-6-(1-methylcyclopropyl)-4,4a,5,6,8,8a-hexahydropyrano[3,4-d][1,3]thiazin-2-amine]
235 nM | 61.2 nM |  |  |  | NC1=N[C@@]2(c3ccc(F)cc3F)CO[C@@H](CC3CC3)C[C@H]2CS1 [Example 8, (4aR,6S,8aS)-6-(Cyclopropylmethyl)-8a-(2,4-difluorophenyl)-4,4a,5,6,8,8a-hexahydropyrano[3,4-d][1,3]thiazin-2-amine]
1050 nM | 57.2 nM |  |  |  | NC1=N[C@@]2(c3c(F)cc(F)cc3F)CO[C@@H](C3CC3)C[C@H]2CS1 [Example 9, (4aR,6R,8aS)-6-Cyclopropyl-8a-(2,4,6-trifluorophenyl)-4,4a,5,6,8,8a-hexahydropyrano[3,4-d][1,3]thiazin-2-amine]
572 nM | 89.7 nM |  |  |  | NC1=N[C@@]2(c3ccc(F)cc3)CO[C@@H](C3CC3)C[C@H]2CS1 [Example 10, (4aR,6R,8aS)-6-Cyclopropyl-8a-(4-fluorophenyl)-4,4a,5,6,8,8a-hexahydropyrano[3,4-d][1,3]thiazin-2-amine]
1420 nM | 85.1 nM |  |  |  | NC1=N[C@@]2(c3cc(F)ccc3F)CO[C@@H](C3CC3)C[C@H]2CS1 [Example 11, (4aR,6R,8aS)-6-Cyclopropyl-8a-(2,5-difluorophenyl)-4,4a,5,6,8,8a-hexahydropyrano[3,4-d][1,3]thiazin-2-amine]
395 nM | 34.6 nM |  |  |  | NC1=N[C@@]2(c3c(F)cccc3F)CO[C@@H](C3CC3)C[C@H]2CS1 [Example 12, (4aR,6R,8aS)-6-Cyclopropyl-8a-(2,6-difluorophenyl)-4,4a,5,6,8,8a-hexahydropyrano[3,4-d][1,3]thiazin-2-amine]
422 nM | 40 nM |  |  |  | NC1=N[C@@]2(c3ccccc3F)CO[C@@H](C3CC3)C[C@H]2CS1 [Example 13, (4aR,6R,8aS)-6-Cyclopropyl-8a-(2-fluorophenyl)-4,4a,5,6,8,8a-hexahydropyrano[3,4-d][1,3]thiazin-2-amine]
715 nM | 72.1 nM |  |  |  | Cc1ccc([C@]23CO[C@@H](C4CC4)C[C@H]2CSC(N)=N3)c(F)c1 [Example 15, (4aR,6R,8aS)-6-Cyclopropyl-8a-(2-fluoro-4-methylphenyl)-4,4a,5,6,8,8a-hexahydropyrano[3,4-d][1,3]thiazin-2-amine]
897 nM | 92.3 nM |  |  |  | Cc1ccc([C@]23CO[C@@H](C4CC4)C[C@H]2CSC(N)=N3)cc1F [Example 16, (4aR,6R,8aS)-6-Cyclopropyl-8a-(3-fluoro-4-methylphenyl)-4,4a,5,6,8,8a-hexahydropyrano[3,4-d][1,3]thiazin-2-amine]
25700 nM | 1560 nM |  |  |  | NC1=N[C@]2(c3ccccc3F)CO[C@H](C3CC3)C[C@@H]2CS1 [Example 17, (4aS,6S,8aR)-6-Cyclopropyl-8a-(2-fluorophenyl)-4,4a,5,6,8,8a-hexahydropyrano[3,4-d][1,3]thiazin-2-amine]
15600 nM | 2220 nM |  |  |  | NC1=N[C@]2(c3ccc(F)cc3)CO[C@H](C3CC3)C[C@@H]2CS1 [Example 18, (4aS,6S,8aR)-6-Cyclopropyl-8a-(4-fluorophenyl)-4,4a,5,6,8,8a-hexahydropyrano[3,4-d][1,3]thiazin-2-amine]
184 nM | 17.9 nM |  |  |  | CC1(C)CCC([C@H]2C[C@H]3CSC(N)=N[C@@]3(c3ccc(F)cc3F)CO2)O1 (stereo partly drawn) [Example 19, (4aR,6R,8aS)-8a-(2,4-Difluorophenyl)-6-(5,5-dimethyltetrahydrofuran-2-yl)-4,4a,5,6,8,8a-hexahydropyrano[3,4-d][1,3]thiazin-2-amine]
116 nM | 16.2 nM |  |  |  | C[C@@H]1C[C@H]1[C@H]1C[C@H]2CSC(N)=N[C@@]2(c2ccc(F)cc2F)CO1 [Example 20, (4aR,6R,8aS)-8a-(2,4-Difluorophenyl)-6-[(1R,2R)-2-methylcyclopropyl]-4,4a,5,6,8,8a-hexahydropyrano[3,4-d][1,3]thiazin-2-amine]
302 nM | 39.7 nM |  |  |  | NC1=N[C@@]2(c3ccc(F)cc3F)CO[C@@H]([C@@H]3CCCO3)C[C@H]2CS1 [Example 21, (4aR,6R,8aS)-8a-(2,4-Difluorophenyl)-6-[(2S)-tetrahydrofuran-2-yl]-4,4a,5,6,8,8a-hexahydropyrano[3,4-d][1,3]thiazin-2-amine]
 |  |  | essentially inactive | 17300 nM | NC1=N[C@]2(c3ccc(F)cc3F)CO[C@H](C3CC3)C[C@@H]2CS1 [Example C23, (4aS,6S,8aR)-6-cyclopropyl-8a-(2,4-difluorophenyl)-4,4a,5,6,8,8a-hexahydropyrano[3,4-d][1,3]thiazin-2-amine]
> 100000 nM | > 30000 nM |  | inactive |  | Cl.NC1=N[C@]2(c3ccc(F)cc3F)CO[C@H](C3CC3)C[C@@H]2[C@H](CF)S1 [Example C48, (4R,4aS,6S,8aR)-6-cyclopropyl-8a-(2,4-difluorophenyl)-4-(fluoromethyl)-4,4a,5,6,8,8a-hexahydropyrano[3,4-d][1,3]thiazin-2-amine, hydrochloride salt]
37000 nM | 2890 nM |  | essentially inactive |  | CC1([C@@H]2C[C@@H]3CSC(N)=N[C@]3(c3ccc(F)cc3F)CO2)CC1 [Example C61, (4aS,6S,8aR)-8a-(2,4-difluorophenyl)-6-(1-methylcyclopropyl)-4,4a,5,6,8,8a-hexahydropyrano[3,4-d][1,3]thiazin-2-amine]
> 86000 nM | 7400 nM |  | essentially inactive |  | NC1=N[C@]2(c3ccc(F)cc3F)CO[C@H](CC3CC3)C[C@@H]2CS1 [Example C74, (4aS,6R,8aR)-6-(cyclopropylmethyl)-8a-(2,4-difluorophenyl)-4,4a,5,6,8,8a-hexahydropyrano[3,4-d][1,3]thiazin-2-amine]

Compound | IC50 (BACE1 enzyme) | IC50 ([1]; Homo sapiens) | IC50 (BACE2 enzyme) | biological activity (in words, see Table 3) (BACE1 enzyme) | IC50 [1]
NC1=N[C@@]2(c3ccc(F)cc3F)CO[C@@H](C3CC3)C[C@H]2CS1 [Example 2, (4aR,6R,8aS)-6-Cyclopropyl-8a-(2,4-difluorophenyl)-4,4a,5,6,8,8a-hexahydropyrano[3,4-d][1,3]thiazin-2-amine] |  | 24.2 nM | 2260 nM |  | 
NC1=N[C@@]2(c3ccccc3)CO[C@@H](C3CC3)C[C@H]2CS1 [Example 14, (4aR,6R,8aS)-6-Cyclopropyl-8a-phenyl-4,4a,5,6,8,8a-hexahydropyrano[3,4-d][1,3]thiazin-2-amine] | 1280 nM | 142 nM |  |  | 
